According to patent US20230233569A1 (Revolution Medicines, Inc., priority 2020, published 2023):

Tests used:
[1] = test system: Capan-1 (K-Ras G12V); assay: CellTiter-Glo cell viability assay, 5-day treatment; type: cell-based; settings: Homo sapiens, CAPAN-1, 120 h, 5-day treatment; read-out: Capan-1 Cell Viability assay data (K-Ras G12V, IC50)
In short: (§1)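 Seeded cells received test compound by direct dispensing. On day 5 the plates sat at room temperature approximately 30 minutes, then luminescence was measured. Data were normalized to DMSO and curve-fitted with four parameters.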

[2] = test system: NCI-H358 (K-Ras G12C); assay: as above; type: cell-based; settings: Homo sapiens, NCI-H358, 120 h, 5-day treatment; read-out: H358 Cell Viability assay data (K-Ras G12C, IC50)
In short: as §1

[3] = biological target: KRAS G12C (Homo sapiens, UniProt P01116+P62937, G12C); assay: Disruption of BRAF RBD interaction with Ras (FRET / MOA assay, with Cyclophilin A); type: biochemical; settings: read-out: KRAS G12C FRET data, IC50
In short: (§2)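 Compound-driven ternary complex formation between nucleotide-loaded K-Ras and Cyclophilin A was measured as loss of BRAF RBD binding. Compounds (10-point 3-fold series, top 30 μM final) were incubated 3 h at 25 °C, then anti-His Eu-W1024 (10 nM) and anti-GST allophycocyanin (50 nM) added for 1.5 h. IC50 was taken from the TR-FRET ratio decrease versus DMSO.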

[4] = biological target: KRAS G12D (Homo sapiens, UniProt P01116+P62937, G12D); assay: as above; type: biochemical; settings: read-out: KRAS G12D FRET data, IC50
In short: as §2

[5] = biological target: KRAS G12S (Homo sapiens, UniProt P01116+P62937, G12S); assay: as above; type: biochemical; settings: read-out: KRAS G12S FRET data, IC50
In short: as §2

[6] = biological target: KRAS G12V (Homo sapiens, UniProt P01116+P62937, G12V); assay: as above; type: biochemical; settings: KRAS G12V; read-out: KRAS G12V FRET data IC50
In short: as §2

[7] = biological target: KRAS G13C (Homo sapiens, UniProt P01116+P62937, G13C); assay: as above; type: biochemical; settings: read-out: KRAS G13C FRET data, IC50
In short: as §2

[8] = biological target: KRAS G13D (Homo sapiens, UniProt P01116+P62937, G13D); assay: as above; type: biochemical; settings: KRAS G13D; read-out: KRAS G13D FRET data IC50
In short: as §2

[9] = biological target: KRAS WT (Homo sapiens, UniProt P01116+P62937); assay: as above; type: biochemical; settings: KRAS WT; read-out: KRAS WT FRET data IC50
In short: as §2

[10] = biological target: NRAS G12C (Homo sapiens, UniProt P01111+P62937, G12C); assay: as above; type: biochemical; settings: NRAS G12C; read-out: NRAS G12C FRET data IC50
[11] = biological target: KRAS Q61H (Homo sapiens, UniProt P01116+P62937, Q61H); assay: as above; type: biochemical; settings: KRAS Q61H; read-out: KRAS Q61H FRET data IC50
In short: (§3)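 TR-FRET in 25 mM HEPES pH 7.3, 100 mM NaCl, 5 mM MgCl2, 0.1% BSA: 25 μM Cyclophilin A, 12.5 nM His6-Ras-GMPPNP, 50 nM GST-BRAF RBD with compound (10-point 3-fold series from 30 μM), 3 h at 25° C. Anti-His Eu/anti-GST APC added, 1.5 h more; IC50 from decreased FRET ratio versus DMSO.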

[12] = biological target: NRAS Q61K (Homo sapiens, UniProt P01111+P62937, Q61K); assay: as above; type: biochemical; settings: NRAS Q61K; read-out: NRAS Q61K FRET data IC50
In short: as §3

[13] = biological target: NRAS Q61R (Homo sapiens, UniProt P01111+P62937, Q61R); assay: as above; type: biochemical; settings: NRAS Q61R; read-out: NRAS Q61R FRET data IC50
In short: as §3

[14] = biological target: NRAS WT (Homo sapiens, UniProt P01111+P62937); assay: as above; type: biochemical; settings: NRAS WT; read-out: NRAS WT FRET data IC50
In short: as §3

Chain of NRAS Q61K (P01111 whole entry Q61K): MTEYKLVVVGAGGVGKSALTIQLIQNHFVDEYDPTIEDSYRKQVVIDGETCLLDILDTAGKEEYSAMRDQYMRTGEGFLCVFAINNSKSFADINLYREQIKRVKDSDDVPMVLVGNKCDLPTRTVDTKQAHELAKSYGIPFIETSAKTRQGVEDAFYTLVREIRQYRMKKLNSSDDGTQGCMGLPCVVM
Chain of NRAS Q61K (P62937 whole entry): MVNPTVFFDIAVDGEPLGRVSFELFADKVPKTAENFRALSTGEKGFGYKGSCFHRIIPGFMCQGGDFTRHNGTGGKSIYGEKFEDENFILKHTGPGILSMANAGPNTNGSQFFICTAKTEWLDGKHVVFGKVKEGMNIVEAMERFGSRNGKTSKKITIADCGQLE
Chain of KRAS Q61H (P01116 1-169 isoform P01116-2 Q61H limits assumed): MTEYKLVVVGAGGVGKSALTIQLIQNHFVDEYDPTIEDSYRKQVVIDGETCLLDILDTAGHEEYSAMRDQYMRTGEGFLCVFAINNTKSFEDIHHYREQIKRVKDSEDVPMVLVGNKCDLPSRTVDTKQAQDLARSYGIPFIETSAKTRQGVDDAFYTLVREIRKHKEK
Chain of KRAS Q61H (P62937 whole entry): as the sequence (P62937 whole entry) above
Chain of KRAS G13D (P01116 1-169 isoform P01116-2 G13D limits assumed): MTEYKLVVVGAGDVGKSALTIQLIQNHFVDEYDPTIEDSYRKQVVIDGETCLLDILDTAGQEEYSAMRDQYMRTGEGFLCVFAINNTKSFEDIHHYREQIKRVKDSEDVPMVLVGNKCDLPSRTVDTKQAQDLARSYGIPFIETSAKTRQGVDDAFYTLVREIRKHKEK
Chain of KRAS G13D (P62937 whole entry): as the sequence (P62937 whole entry) above
Chain of KRAS G13C (P01116 1-169 isoform P01116-2 G13C): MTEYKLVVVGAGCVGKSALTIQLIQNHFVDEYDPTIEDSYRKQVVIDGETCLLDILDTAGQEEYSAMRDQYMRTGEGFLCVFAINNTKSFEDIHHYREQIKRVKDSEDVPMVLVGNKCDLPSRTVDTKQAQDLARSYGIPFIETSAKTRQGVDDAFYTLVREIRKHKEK
Chain of KRAS G13C (P62937 whole entry): as the sequence (P62937 whole entry) above
Chain of NRAS Q61R (P01111 whole entry Q61R): as the sequence (P01111 whole entry Q61K) above, with K61R counted along it
Chain of NRAS Q61R (P62937 whole entry): as the sequence (P62937 whole entry) above
Chain of KRAS WT (P01116 1-169 isoform P01116-2 limits assumed): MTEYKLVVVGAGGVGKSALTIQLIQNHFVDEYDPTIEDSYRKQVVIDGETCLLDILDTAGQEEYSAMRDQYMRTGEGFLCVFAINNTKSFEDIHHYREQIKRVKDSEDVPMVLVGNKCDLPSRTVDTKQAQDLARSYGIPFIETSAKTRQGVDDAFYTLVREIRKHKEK
Chain of KRAS WT (P62937 whole entry): as the sequence (P62937 whole entry) above
Chain of NRAS G12C (P01111 whole entry G12C): as the sequence (P01111 whole entry Q61K) above, with G12C, K61Q counted along it
Chain of NRAS G12C (P62937 whole entry): as the sequence (P62937 whole entry) above
Chain of NRAS WT (P01111 whole entry): as the sequence (P01111 whole entry Q61K) above, with K61Q counted along it
Chain of NRAS WT (P62937 whole entry): as the sequence (P62937 whole entry) above
Chain of KRAS G12S (P01116 1-169 isoform P01116-2 G12S limits assumed): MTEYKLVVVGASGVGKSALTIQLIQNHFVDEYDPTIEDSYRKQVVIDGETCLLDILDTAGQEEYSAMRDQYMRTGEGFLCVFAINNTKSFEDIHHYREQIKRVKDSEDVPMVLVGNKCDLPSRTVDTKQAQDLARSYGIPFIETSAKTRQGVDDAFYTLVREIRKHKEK
Chain of KRAS G12S (P62937 whole entry): as the sequence (P62937 whole entry) above
Chain of KRAS G12V (P01116 1-169 isoform P01116-2 G12V limits assumed): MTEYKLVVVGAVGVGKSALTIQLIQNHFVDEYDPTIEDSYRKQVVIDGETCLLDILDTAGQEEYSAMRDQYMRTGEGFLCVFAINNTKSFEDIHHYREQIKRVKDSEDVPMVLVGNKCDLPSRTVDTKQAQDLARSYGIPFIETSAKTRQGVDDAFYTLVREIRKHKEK
Chain of KRAS G12V (P62937 whole entry): as the sequence (P62937 whole entry) above
Chain of KRAS G12C (P01116 1-169 isoform P01116-2 G12C): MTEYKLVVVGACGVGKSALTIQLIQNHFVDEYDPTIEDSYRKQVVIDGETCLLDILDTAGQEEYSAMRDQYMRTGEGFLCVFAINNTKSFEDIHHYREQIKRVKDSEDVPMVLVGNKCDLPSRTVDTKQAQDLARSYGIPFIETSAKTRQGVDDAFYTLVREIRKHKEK
Chain of KRAS G12C (P62937 whole entry): as the sequence (P62937 whole entry) above
Chain of KRAS G12D (P01116 1-169 isoform P01116-2 G12D limits assumed): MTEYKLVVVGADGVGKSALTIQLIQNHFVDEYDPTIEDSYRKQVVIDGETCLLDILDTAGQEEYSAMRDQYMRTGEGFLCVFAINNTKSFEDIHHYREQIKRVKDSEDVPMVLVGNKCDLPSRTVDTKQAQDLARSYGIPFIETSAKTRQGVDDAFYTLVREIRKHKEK
Chain of KRAS G12D (P62937 whole entry): as the sequence (P62937 whole entry) above

| SMILES | IC50 [1] | IC50 [2] | IC50 [3] | IC50 [4] | IC50 [5] | IC50 [6] | IC50 [7] | IC50 [8] | IC50 [9] | IC50 [10] | IC50 [11] | IC50 [12] | IC50 [13] | IC50 [14] |
| --- | --- | --- | --- | --- | --- | --- | --- | --- | --- | --- | --- | --- | --- | --- |
| CCn1c(-c2cc(N3CCN(C)CC3)cnc2[C@H](C)OC)c2c3cc(ccc31)-c1csc(n1)C[C@H](NC(=O)[C@H](C(C)C)N(C)C(=O)[C@H]1CCNC1=O)C(=O)N1CCC[C@H](N1)C(=O)OCC(C)(C)C2 (single isomer, unassigned) [Example A449] | 100 to 1000 nM | 100 to 1000 nM | 100 to 1000 nM | 1000 to 10000 nM | 1000 to 10000 nM | 1000 to 10000 nM | 100 to 1000 nM | 1000 to 10000 nM | 100 to 1000 nM | 100 to 1000 nM | 100 to 1000 nM | 100 to 1000 nM | 100 to 1000 nM | 100 to 1000 nM |
| CCn1c(-c2cc(N3CCN(C)CC3)cnc2[C@H](C)OC)c2c3cc(ccc31)-c1csc(n1)C[C@H](NC(=O)[C@H](C(C)C)N(C)C(=O)N1CC(N(C)C)C1)C(=O)N1CCC[C@H](N1)C(=O)OCC(C)(C)C2 (atropisomer, axis not shown) [Example A477] | < 10 nM | < 10 nM | 10 to 100 nM | 100 to 1000 nM | 100 to 1000 nM | 10 to 100 nM | 100 to 1000 nM | 100 to 1000 nM | 100 to 1000 nM | 10 to 100 nM | 10 to 100 nM | 10 to 100 nM | 10 to 100 nM | 10 to 100 nM |
| CCn1c(-c2cccnc2[C@H](C)OC)c2c3cc(ccc31)-c1csc(n1)C[C@H](NC(=O)[C@H](C(C)C)N(C)C(=O)N1C[C@H]3OCCN(C)[C@H]3C1)C(=O)N1CCC[C@H](N1)C(=O)OCC(C)(C)C2 (atropisomer, axis not shown) [Example A451] | 10 to 100 nM | 10 to 100 nM | 100 to 1000 nM | 1000 to 10000 nM | 100 to 1000 nM | 100 to 1000 nM | 100 to 1000 nM | 1000 to 10000 nM | 100 to 1000 nM | 100 to 1000 nM | 100 to 1000 nM | 10 to 100 nM | 100 to 1000 nM | 100 to 1000 nM |
| CCn1c(-c2cccnc2[C@H](C)OC)c2c3cc(ccc31)-c1csc(n1)C[C@H](NC(=O)[C@H](C(C)C)N(C)C(=O)N1CCCOCC1)C(=O)N1CCC[C@H](N1)C(=O)OCC(C)(C)C2 (atropisomer, axis not shown) [Example A335] | 10 to 100 nM | < 10 nM | 10 to 100 nM | 100 to 1000 nM | 10 to 100 nM | 100 to 1000 nM | 100 to 1000 nM | 100 to 1000 nM | 10 to 100 nM | 10 to 100 nM | 10 to 100 nM | 10 to 100 nM | 10 to 100 nM | 10 to 100 nM |
| CCn1c(-c2cccnc2[C@H](C)OC)c2c3cc(ccc31)-c1csc(n1)C[C@H](NC(=O)[C@H](CC1CC1)N(C)C(=O)N1CC(OC)C1)C(=O)N1CCC[C@H](N1)C(=O)OCC(C)(C)C2 (atropisomer, axis not shown) [Example A578] | 100 to 1000 nM | 10 to 100 nM | 10 to 100 nM | 100 to 1000 nM | 10 to 100 nM | 10 to 100 nM | 10 to 100 nM | 10 to 100 nM | 10 to 100 nM | < 10 nM | 10 to 100 nM | 10 to 100 nM | 10 to 100 nM | 10 to 100 nM |
| CCn1c(-c2cc(C3CCN(C)CC3)cnc2[C@H](C)OC)c2c3cc(ccc31)-c1cc(O)cc(c1)C[C@H](NC(=O)[C@H](C(C)C)N(C)C(=O)[C@@H]1OCC[C@@H]1c1ccccc1)C(=O)N1CCC[C@H](N1)C(=O)OCC(C)(C)C2 (atropisomer, axis not shown) [Example A577] | < 10 nM | < 10 nM | < 10 nM | 10 to 100 nM | < 10 nM | 10 to 100 nM | 10 to 100 nM | 10 to 100 nM | 10 to 100 nM | < 10 nM | < 10 nM | 10 to 100 nM | < 10 nM | < 10 nM |
| CCn1c(-c2cccnc2[C@H](C)OC)c2c3cc(ccc31)-c1csc(n1)C[C@H](NC(=O)[C@H](C(C)C)N(C)C(=O)N1CCCC13CCN(C)CC3)C(=O)N1CCC[C@H](N1)C(=O)OCC(C)(C)C2 [Example A498] | 100 to 1000 nM | 10 to 100 nM | 10 to 100 nM | 100 to 1000 nM | 10 to 100 nM | 100 to 1000 nM | 100 to 1000 nM | 100 to 1000 nM | 10 to 100 nM | 10 to 100 nM | 10 to 100 nM | 100 to 1000 nM | 100 to 1000 nM | 10 to 100 nM |
| CCn1c(-c2cccnc2[C@H](C)OC)c2c3cc(ccc31)-c1csc(n1)C[C@H](NC(=O)[C@H](C(C)C)N(C)C(=O)N1CCN3CCOC[C@@H]3C1)C(=O)N1CCC[C@H](N1)C(=O)OCC(C)(C)C2 [Example A547] | 10 to 100 nM | 10 to 100 nM | 100 to 1000 nM | 1000 to 10000 nM | 100 to 1000 nM | 100 to 1000 nM | 100 to 1000 nM | 1000 to 10000 nM | 100 to 1000 nM | 100 to 1000 nM | 100 to 1000 nM | 100 to 1000 nM | 100 to 1000 nM | 100 to 1000 nM |
| CCn1c(-c2cccnc2[C@H](C)OC)c2c3cc(ccc31)-c1csc(n1)C[C@H](NC(=O)[C@H](C(C)C)N(C)C(=O)N1CCC[C@@H](N(C)C)C1)C(=O)N1CCC[C@H](N1)C(=O)OCC(C)(C)C2 (atropisomer, axis not shown) [Example A531] | 10 to 100 nM | 10 to 100 nM | 100 to 1000 nM | 100 to 1000 nM | 100 to 1000 nM | 100 to 1000 nM | 100 to 1000 nM | 100 to 1000 nM | 100 to 1000 nM | 10 to 100 nM | 10 to 100 nM | 10 to 100 nM | 100 to 1000 nM | 10 to 100 nM |
